The target of one experiment is T1, human TLR7 (Homo sapiens, UniProt Q9NYK1).
T1 construct: host or cells: HEK-Blue hTLR7 (HEK293-derived reporter cells)
T1 sequence (Q9NYK1 27-1049): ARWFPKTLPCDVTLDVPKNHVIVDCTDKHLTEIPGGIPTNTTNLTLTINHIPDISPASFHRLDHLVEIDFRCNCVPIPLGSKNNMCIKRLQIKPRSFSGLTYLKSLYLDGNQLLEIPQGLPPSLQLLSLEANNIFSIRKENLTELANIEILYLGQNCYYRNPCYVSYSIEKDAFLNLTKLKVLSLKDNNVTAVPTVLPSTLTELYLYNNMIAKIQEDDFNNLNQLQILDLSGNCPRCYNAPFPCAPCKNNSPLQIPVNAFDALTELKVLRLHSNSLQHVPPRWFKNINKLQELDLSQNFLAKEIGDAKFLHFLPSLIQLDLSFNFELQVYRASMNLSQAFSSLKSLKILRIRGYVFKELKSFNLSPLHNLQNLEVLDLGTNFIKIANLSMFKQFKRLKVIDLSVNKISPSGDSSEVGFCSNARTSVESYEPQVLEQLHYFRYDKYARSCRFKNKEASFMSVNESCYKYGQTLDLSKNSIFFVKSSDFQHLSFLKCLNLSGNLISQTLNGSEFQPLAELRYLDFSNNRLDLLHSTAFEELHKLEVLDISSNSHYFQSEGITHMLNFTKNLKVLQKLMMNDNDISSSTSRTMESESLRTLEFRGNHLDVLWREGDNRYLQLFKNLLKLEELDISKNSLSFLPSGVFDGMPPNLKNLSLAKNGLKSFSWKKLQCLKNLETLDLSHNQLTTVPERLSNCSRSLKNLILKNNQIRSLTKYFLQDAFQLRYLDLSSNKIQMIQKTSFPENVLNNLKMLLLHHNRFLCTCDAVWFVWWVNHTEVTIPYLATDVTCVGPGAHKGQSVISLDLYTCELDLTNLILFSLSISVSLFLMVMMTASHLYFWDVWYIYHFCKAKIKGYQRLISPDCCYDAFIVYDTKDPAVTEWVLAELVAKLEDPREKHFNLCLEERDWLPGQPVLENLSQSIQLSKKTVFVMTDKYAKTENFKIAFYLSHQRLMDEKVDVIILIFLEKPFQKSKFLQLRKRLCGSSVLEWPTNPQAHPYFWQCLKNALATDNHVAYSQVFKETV
Put plainly: HEK-Blue hTLR7 SEAP reporter gene agonist assay. The class given is cell-based. Particulars: HEK-Blue hTLR7 cells, 16 to 22 hours incubation. As for the experimental part:
(§1) HEK-Blue™ cells that stably express human TLR7 or TLR8 are used to evaluate the agonistic activity of the compounds on TLR7 or TLR8, which is determined by the induction of the expression of SEAP reporter gene under the control of minimum IFN-β promoter fusion to 5×NF-κB and AP-1 binding sites. The assay is conducted as below:
(§2) HEK-Blue™ hTLR7 (Invivogen, 80,000 cells per well) or HEK-Blue™ hTLR8 (Invivogen, 60,000 cells per well) were added to the 96-well cell culture plate, followed by adding of the test compound. The final concentration of the test compound in the medium ranged from […], and was incubated for 16 to 22 hours. According to the manufacturer's instructions, the HEK-Blue assay reagent Quanti-blue (Invivogen) was used to measure SEAP levels in cell media. Optical density at 650 nm (OD650) was measured by Neo2 multifunction plate reader (Bio-tek). The half effective concentration (EC50) was calculated using GraphPad Prism.

The next experiment deals with T2, human TLR8 (Homo sapiens, UniProt Q9NR97).
T2 construct: host or cells: HEK-Blue hTLR8 (HEK293-derived reporter cells)
T2 sequence (Q9NR97 27-1041): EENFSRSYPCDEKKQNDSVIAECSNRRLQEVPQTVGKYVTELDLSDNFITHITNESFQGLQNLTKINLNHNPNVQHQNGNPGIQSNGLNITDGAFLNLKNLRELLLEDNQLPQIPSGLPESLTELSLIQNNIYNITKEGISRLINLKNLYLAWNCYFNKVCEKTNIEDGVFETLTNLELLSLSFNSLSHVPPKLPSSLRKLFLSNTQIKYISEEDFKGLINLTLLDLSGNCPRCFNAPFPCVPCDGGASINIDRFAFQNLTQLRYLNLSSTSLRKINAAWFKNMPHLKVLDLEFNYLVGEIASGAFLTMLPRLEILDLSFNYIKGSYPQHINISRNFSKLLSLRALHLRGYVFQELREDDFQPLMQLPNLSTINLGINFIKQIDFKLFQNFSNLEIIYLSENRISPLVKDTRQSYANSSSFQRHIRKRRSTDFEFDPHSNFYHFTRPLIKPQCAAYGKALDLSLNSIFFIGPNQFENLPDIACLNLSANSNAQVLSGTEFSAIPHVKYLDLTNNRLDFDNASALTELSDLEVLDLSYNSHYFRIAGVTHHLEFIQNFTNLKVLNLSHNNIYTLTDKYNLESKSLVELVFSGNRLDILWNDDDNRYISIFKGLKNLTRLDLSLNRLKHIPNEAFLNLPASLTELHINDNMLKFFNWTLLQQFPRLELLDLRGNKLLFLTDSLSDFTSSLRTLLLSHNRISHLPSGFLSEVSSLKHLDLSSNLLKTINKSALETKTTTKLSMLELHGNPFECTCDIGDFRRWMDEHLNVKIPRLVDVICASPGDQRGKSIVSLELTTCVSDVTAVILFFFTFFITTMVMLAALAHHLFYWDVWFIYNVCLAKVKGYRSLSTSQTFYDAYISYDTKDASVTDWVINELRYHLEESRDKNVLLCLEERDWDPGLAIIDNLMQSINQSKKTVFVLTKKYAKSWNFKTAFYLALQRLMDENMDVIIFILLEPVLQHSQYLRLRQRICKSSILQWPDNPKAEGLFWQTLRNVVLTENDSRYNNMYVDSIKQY
The experiment in a line: HEK-Blue hTLR8 SEAP reporter gene agonist assay. The class given is cell-based. Particulars: HEK-Blue hTLR8 cells, 16 to 22 hours incubation. As for the experimental part:
as §1, §2
On the technique in general: A reporter such as luciferase makes a cellular process visible.

By EC50 is commonly meant the concentration at which the effect is half-maximal. A higher EC50 goes with weaker potency. Regarding `CCC[C@@H](C)Nc1nc(N)nc2ccn(Cc3ccc(CN4CC5(COC5)C4)cc3)c(=O)c12` [Compound I-150, (R)-6-(4-((2-oxa-6-azaspiro[3.3]heptan-6-yl)methyl)benzyl)-2-amino-4-(pentan-2-ylamino)pyrido[4,3-d]pyrimidin-5(6H)-one], the EC50 is 0.04 µM at human TLR7 and 0.03 µM on human TLR8.
Turning to `CCC[C@@H](C)Nc1nc(N)nc2ccn(Cc3ccc(CN4CCCC4)cc3)c(=O)c12` [Compound I-103, (R)-2-amino-4-(pentan-2-ylamino)-6-(4-(pyrrolidin-1-ylmethyl)benzyl)pyrido[4,3-d]pyrimidin-5(6H)-one], the results for the EC50 at human TLR7 and on human TLR8 were 0.064 µM and 0.047 µM, respectively.
As for `CCC[C@@H](CO)Nc1nc(N)nc2ccn(Cc3ccc(CN4CCCC4)cc3OC)c(=O)c12` [Compound I-158, (S)-2-amino-4-((1-hydroxypentan-2-yl)amino)-6-(2-methoxy-4-(pyrrolidin-1-ylmethyl)benzyl)pyrido[4,3-d]pyrimidin-5(6H)-one], the results for the EC50 on human TLR7 and on human TLR8 were 0.01 µM and 0.004 µM, respectively.
For `CCCCNc1nc(N)nc2ccn(Cc3ccc(C(=O)N4CCN(CCO)CC4)cc3OC)c(=O)c12` [Compound I-120, 2-amino-4-(butylamino)-6-(4-(4-(2-hydroxyethyl)piperazine-1-carbonyl)-2-methoxybenzyl)pyrido[4,3-d]pyrimidin-5(6H)-one] the same measures were 0.046 µM and 0.053 µM.
As to `CCC[C@@H](C)Nc1nc(N)nc2ccn(Cc3ccc(C(=O)N4CCNCC4)cc3)c(=O)c12` [Compound I-117, (R)-2-amino-4-(pentan-2-ylamino)-6-(4-(piperazine-1-carbonyl)benzyl)pyrido[4,3-d]pyrimidin-5(6H)-one], the results for the EC50 on human TLR7 and at human TLR8 were 0.055 µM and 0.049 µM, respectively.
As for `CCC[C@@H](C)Nc1nc(N)nc2ccn(Cc3ccc(CN4CCCC4)cc3OC)c(=O)c12` [Compound I-154, (R)-2-amino-6-(2-methoxy-4-(pyrrolidin-1-ylmethyl)benzyl)-4-(pentan-2-ylamino)pyrido[4,3-d]pyrimidin-5(6H)-one], the EC50 worked out at 0.03 µM on human TLR7 and 0.04 µM on human TLR8.
For `CCC[C@@H](C)Nc1nc(N)nc2ccn(Cc3ccc(C(=O)N4CCNCC4)cc3OC)c(=O)c12` [Compound I-180, (R)-2-amino-6-(2-methoxy-4-(piperazine-1-carbonyl)benzyl)-4-(pentan-2-ylamino)pyrido[4,3-d]pyrimidin-5(6H)-one] the same measures were 0.038 µM and 0.012 µM.
With `CCC[C@@H](C)Nc1nc(N)nc2ccn(Cc3ccc(CN4CCN(C)CC4)cc3OC)c(=O)c12` [Compound I-179, (R)-2-amino-6-(2-methoxy-4-((4-methylpiperazin-1-yl)methyl)benzyl)-4-(pentan-2-ylamino)pyrido[4,3-d]pyrimidin-5(6H)-one], the EC50 on human TLR7 is 0.091 µM; at human TLR8, 0.058 µM.
As to `CCCCNc1nc(N)nc2ccn(Cc3ccc(C(=O)N4CCN(C)CC4)c(OC)c3)c(=O)c12` [Compound I-79, 2-amino-4-(butylamino)-6-(3-methoxy-4-(4-methylpiperazine-1-carbonyl)benzyl)pyrido[4,3-d]pyrimidin-5(6H)-one], the results for the EC50 at human TLR7 and on human TLR8 were 0.087 µM and 0.105 µM, respectively.
For `CCC[C@@H](CO)Nc1nc(N)nc2ccn(Cc3ccc(CN4CCN(C)CC4)cc3OC)c(=O)c12` [Compound I-162, (S)-2-amino-4-((1-hydroxypentan-2-yl)amino)-6-(2-methoxy-4-((4-methylpiperazin-1-yl)methyl)benzyl)pyrido[4,3-d]pyrimidin-5(6H)-one] the same measures were 0.02 µM and 0.01 µM.
Taken in the same sequence, the figures for `CCC[C@@H](C)Nc1nc(N)nc2ccn(Cc3ccc(OCCNC)nc3)c(=O)c12` [Compound I-153, (R)-2-amino-6-((6-(2-(methylamino)ethoxy)pyridin-3-yl)methyl)-4-(pentan-2-ylamino)pyrido[4,3-d]pyrimidin-5(6H)-one] were 0.09 µM and 0.04 µM.
For `CCCCNc1nc(N)nc2ccn(Cc3ccc(C(=O)N4CCNCC4)cc3)c(=O)c12` [Compound I-14, 2-amino-4-(butylamino)-6-(4-(piperazine-1-carbonyl)benzyl)pyrido[4,3-d]pyrimidin-5(6H)-one] the same measures were 0.085 µM and 0.077 µM.
Take `CCC[C@@H](CCO)Nc1nc(N)nc2ccn(Cc3ccc(CN4CCCC4)cc3)c(=O)c12` [Compound I-118, (S)-2-amino-4-((1-hydroxyhexan-3-yl)amino)-6-(4-(pyrrolidin-1-ylmethyl)benzyl)pyrido[4,3-d]pyrimidin-5(6H)-one]: the values for the EC50 on human TLR7 and at human TLR8 were 0.04 µM and 0.052 µM, respectively.
For `CCC[C@@H](C)Nc1nc(N)nc2ccn(Cc3ccc(C(=O)N4CCN(CCO)CC4)cc3OC)c(=O)c12` [Compound I-123, (R)-2-amino-6-(4-(4-(2-hydroxyethyl)piperazine-1-carbonyl)-2-methoxybenzyl)-4-(pentan-2-ylamino)pyrido[4,3-d]pyrimidin-5(6H)-one], the values for the EC50 at human TLR7 and at human TLR8 were 0.023 µM and 0.034 µM, respectively.
`CCC[C@@H](CCO)Nc1nc(N)nc2ccn(Cc3ccc(CN4CC5(COC5)C4)cc3)c(=O)c12` [Compound I-142, (S)-6-(4-((2-oxa-6-azaspiro[3.3]heptan-6-yl)methyl)benzyl)-2-amino-4-((1-hydroxyhexan-3-yl)amino)pyrido[4,3-d]pyrimidin-5(6H)-one]: the EC50 at human TLR7 came out at 0.07 µM; on human TLR8 it was 0.04 µM.
For `CCCC(CCC)Nc1nc(N)nc2ccn(Cc3ccc(C(=O)N4CCN(C)CC4)cc3OC)c(=O)c12` [Compound I-133, 2-amino-4-(heptan-4-ylamino)-6-(2-methoxy-4-(4-methylpiperazine-1-carbonyl)benzyl)pyrido[4,3-d]pyrimidin-5(6H)-one], the EC50 on human TLR7 turned out to be 0.07 µM.
On the same count and under the same terms, the same measure for `CCCC(CCC)Nc1nc(N)nc2ccn(Cc3ccc(C(=O)N4CCN(C)CC4)cc3)c(=O)c12` [Compound I-114, 2-amino-4-(heptan-4-ylamino)-6-(4-(4-methylpiperazine-1-carbonyl)benzyl)pyrido[4,3-d]pyrimidin-5(6H)-one]: 0.086 µM.

(Values after patent US20250059183A1, “PYRIDINE[4,3-D]PYRIMIDINE COMPOUND AS TLR7/8 AGONIST” (SHANGHAI VISONPHARMA CO., LTD., priority 2021, published 2025).)
